Results on 32 molecules are retold here after patent US11578061B2, “Inhibitors of LRRK2 kinase” (Halia Therapeutics, Inc., priority 2021, dated 2023).

The target of the experiment is recombinant human LRRK2 (catalytic domain only [amino acids 970-2527], GST-tagged) (Homo sapiens (Human), UniProt Q5S007). Nature of the experiment: LRRK2 Enzymatic Assay. The class given is biochemical. The note with it: LRRKtide substrate, [32P]-ATP. Put shortly: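 Radiometric P81 filter-binding read-out of [32P]-ATP transfer to LRRKtide (20 μM) by 30 nM GST-LRRK2 970-2527, 2 h at room temperature after 20 min compound preincubation (10 μM–0.5 nM, 1% DMSO). IC50 derived from % remaining activity versus DMSO.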
Sequence of recombinant human LRRK2 (catalytic domain only [amino acids 970-2527], GST-tagged) (Q5S007 970-2527): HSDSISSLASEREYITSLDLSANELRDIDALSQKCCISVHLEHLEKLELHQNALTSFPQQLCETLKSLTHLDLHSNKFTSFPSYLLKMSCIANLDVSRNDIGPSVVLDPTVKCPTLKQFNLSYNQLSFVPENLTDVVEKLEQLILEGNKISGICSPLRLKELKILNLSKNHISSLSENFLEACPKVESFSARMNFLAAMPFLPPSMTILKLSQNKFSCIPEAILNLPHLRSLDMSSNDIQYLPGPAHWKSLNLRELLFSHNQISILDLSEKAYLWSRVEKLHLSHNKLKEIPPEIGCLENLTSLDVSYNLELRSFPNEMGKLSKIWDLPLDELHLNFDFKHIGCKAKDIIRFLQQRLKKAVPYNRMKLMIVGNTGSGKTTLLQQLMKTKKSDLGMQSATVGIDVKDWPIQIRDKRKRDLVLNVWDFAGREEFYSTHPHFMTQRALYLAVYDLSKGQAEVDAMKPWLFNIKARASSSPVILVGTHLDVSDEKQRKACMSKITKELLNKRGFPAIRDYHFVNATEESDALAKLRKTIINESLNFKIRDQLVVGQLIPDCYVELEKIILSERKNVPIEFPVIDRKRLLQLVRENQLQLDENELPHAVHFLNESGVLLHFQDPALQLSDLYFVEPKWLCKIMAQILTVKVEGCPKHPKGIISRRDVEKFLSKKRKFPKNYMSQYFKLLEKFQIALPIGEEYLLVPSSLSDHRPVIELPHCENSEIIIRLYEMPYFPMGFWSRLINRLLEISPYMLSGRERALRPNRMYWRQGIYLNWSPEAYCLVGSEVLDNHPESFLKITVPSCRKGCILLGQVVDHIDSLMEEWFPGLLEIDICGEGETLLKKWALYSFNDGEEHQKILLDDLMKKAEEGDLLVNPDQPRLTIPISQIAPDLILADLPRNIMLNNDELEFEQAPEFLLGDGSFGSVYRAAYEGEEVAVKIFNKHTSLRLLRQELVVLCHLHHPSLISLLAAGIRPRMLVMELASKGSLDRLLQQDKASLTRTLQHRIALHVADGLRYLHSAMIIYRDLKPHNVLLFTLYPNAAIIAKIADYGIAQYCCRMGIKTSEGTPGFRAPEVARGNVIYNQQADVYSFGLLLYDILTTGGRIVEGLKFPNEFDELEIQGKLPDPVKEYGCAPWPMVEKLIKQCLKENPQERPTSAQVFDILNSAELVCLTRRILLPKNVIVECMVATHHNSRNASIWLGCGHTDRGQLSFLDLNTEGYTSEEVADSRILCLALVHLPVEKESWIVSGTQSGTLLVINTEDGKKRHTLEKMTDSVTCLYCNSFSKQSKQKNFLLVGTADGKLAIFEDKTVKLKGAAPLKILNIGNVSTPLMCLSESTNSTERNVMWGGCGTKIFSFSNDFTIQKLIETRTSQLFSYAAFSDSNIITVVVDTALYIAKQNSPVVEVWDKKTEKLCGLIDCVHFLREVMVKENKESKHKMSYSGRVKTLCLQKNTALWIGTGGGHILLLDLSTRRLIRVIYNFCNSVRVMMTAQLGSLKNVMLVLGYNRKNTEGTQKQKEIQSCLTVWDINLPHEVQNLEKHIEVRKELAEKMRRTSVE
For the molecule `Cc1nn(C(C)(C)C#N)cc1Nc1ncc(F)c(OCC2(F)CCN(C)CC2)n1` [Example 66, 2-(4-((5-fluoro-4-((4-fluoro-1-methylpiperidin-4-yl)methoxy)pyrimidin-2-yl)amino)-3-methyl-1H-pyrazol-1-yl)-2-methylpropanenitrile], the IC50 (commonly the concentration that gives 50% inhibition) was greater than 0.4 µM.

As to `Cc1nn(C(C)(C)C#N)cc1Nc1ncc(F)c(OCC2CCN(C)CC2)n1` [Example 67, 2-(4-((5-fluoro-4-((1-methylpiperidin-4-yl)methoxy)pyrimidin-2-yl)amino)-3-methyl-1H-pyrazol-1-yl)-2-methylpropanenitrile], the IC50 was greater than 0.4 µM.

Regarding `Cc1nn(C(C)(C)C#N)cc1Nc1ncc(Cl)c(OCC2CN(C)C2)n1` [Example 68, 2-(4-((5-chloro-4-((1-methylazetidin-3-yl)methoxy)pyrimidin-2-yl)amino)-3-methyl-1H-pyrazol-1-yl)-2-methylpropanenitrile], the IC50 was greater than 0.4 µM.

Turning to `Cc1nn(C2CC(C#N)C2)cc1Nc1ncc(Cl)c(OCC2(F)CN(C)C2)n1` (centres unmarked) [Example 69, 3-(4-((5-chloro-4-((3-fluoro-1-methylazetidin-3-yl)methoxy)pyrimidin-2-yl)amino)-3-methyl-1H-pyrazol-1-yl)cyclobutane-1-carbonitrile], the IC50 is greater than 0.4 µM.

As to `Cc1nn(C(C)(C)C#N)cc1Nc1ncc(Cl)c(OCC2CC3(C2)CN(C)C3)n1` [Example 70, 2-(4-((5-chloro-4-((2-methyl-2-azaspiro[3.3]heptan-6-yl)methoxy)pyrimidin-2-yl)amino)-3-methyl-1H-pyrazol-1-yl)-2-methylpropanenitrile], the concentration for half-maximal inhibition (IC50) is less than 0.05 µM.

Regarding `CC1(C(=O)N[C@H]2CC[C@H](COc3ccnc(Nc4ccc(N5CCOCC5)cc4)n3)CC2)CC1` [Example 71, 1-methyl-N-((1R,4R)-4-(((2-((4-morpholinophenyl)amino)pyrimidin-4-yl)oxy)methyl)cyclo-hexyl)cyclopropane-1-carboxamide], the 50% inhibitory concentration (IC50) is greater than 0.4 µM.

For `CC(=O)N[C@H]1CC[C@H](COc2ccnc(Nc3ccc(N4CCOCC4)cc3)n2)CC1` [Example 72, N-((1R,4R)-4-(((2-((4-morpholinophenyl)amino)pyrimidin-4-yl)oxy)methyl)cyclo-hexyl)acetamide], the IC50 lay in the range of 0.05 to 0.2 µM.

Take `CC(=O)N[C@H]1CC[C@H](COc2ccnc(Nc3ccc(N4C[C@@H](C)O[C@@H](C)C4)cc3)n2)CC1` [Example 73, N-((1R,4R)-4-(((2-((4-((2R,6S)-2,6-dimethylmorpholino)phenyl)amino)pyrimidin-4-yl)oxy)methyl)cyclo-hexyl)acetamide]: the IC50 was 0.05 to 0.2 µM.

With `CC(=O)N[C@H]1CC[C@H](COc2ccnc(Nc3cn(C(C)(C)C#N)nc3C)n2)CC1` [Example 74, N-((1R,4R)-4-(((2-((1-(2-cyanopropan-2-yl)-3-methyl-1H-pyrazol-4-yl)amino)pyrimidin-4-yl)oxy)methyl)cyclo-hexyl)acetamide], the concentration for half-maximal inhibition (IC50) lay in the range of 0.05 to 0.2 µM.

As to `CC(=O)N[C@H]1CC[C@H](COc2ccnc(Nc3cn(C4CC(C#N)C4)nc3C)n2)CC1` (stereo partly drawn) [Example 75, N-((1R,4R)-4-(((2-((1-(3-cyanocyclobutyl)-3-methyl-1H-pyrazol-4-yl)amino)pyrimidin-4-yl)oxy)methyl)cyclo-hexyl)acetamide], the IC50 is greater than 0.4 µM.

In the case of `CC(=O)N[C@H]1CC[C@H](COc2ccnc(Nc3cnn(C(C)C)c3)n2)CC1` [Example 76, N-((1R,4R)-4-(((2-((1-isopropyl-1H-pyrazol-4-yl)amino)pyrimidin-4-yl)oxy)methyl)cyclo-hexyl)acetamide], the IC50 lay in the range of 0.05 to 0.2 µM.

Turning to `CC(=O)NC12CCC(COc3ccnc(Nc4ccc(N5CCOCC5)cc4)n3)(CC1)CC2` [Example 77, N-(4-(((2-((4-morpholinophenyl)amino)pyrimidin-4-yl)oxy)methyl)bicyclo [2.2.2]octan-1-yl)acetamide], the IC50 was greater than 0.4 µM.

Take `CC(=O)NC12CCC(COc3ccnc(Nc4cn(C(C)(C)C#N)nc4C)n3)(CC1)CC2` [Example 78, N-(4-(((2-((1-(2-cyanopropan-2-yl)-3-methyl-1H-pyrazol-4-yl)amino)pyrimidin-4-yl)oxy)methyl)bicyclo [2.2.2]octan-1-yl)acetamide]: the IC50 was 0.2 to 0.4 µM.

Turning to `CC(=O)NC12C3C4C1C1C2C3C41COc1ccnc(Nc2ccc(N3C[C@@H](C)O[C@@H](C)C3)cc2)n1` (stereo partly drawn) [Example 79, N-(4-(((2-((4-((2S,6R)-2,6-dimethylmorpholino)phenyl)amino)py-rimidin-4-yl)oxy)methyl)cuban-1-yl)acetamide], the IC50 was 0.2 to 0.4 µM.

For the molecule `CC(=O)N[C@H]1CC[C@H](COc2nc(Nc3ccc(N4CCOCC4)cc3)ncc2Cl)CC1` [Example 80, N-((1R,4R)-4-(((5-chloro-2-((4-morpholinophenyl)amino)pyrimidin-4-yl)oxy)methyl)cyclo-hexyl)acetamide], the concentration for half-maximal inhibition (IC50) was less than 0.05 µM.

As to `CC(=O)N[C@H]1CC[C@H](COc2nc(Nc3cn(C(C)(C)C#N)nc3C)ncc2Cl)CC1` [Example 81, N-((1R,4R)-4-(((5-chloro-2-((1-(2-cyanopropan-2-yl)-3-methyl-1H-pyrazol-4-yl)amino)pyrimidin-4-yl)oxy)methyl)cyclo-hexyl)acetamide], the IC50 was less than 0.05 µM.

`CC(=O)N[C@H]1CC[C@H](COc2nc(Nc3ccc(N4CCOCC4)cc3)ncc2F)CC1` [Example 82, N-((1R,4R)-4-(((5-fluoro-2-((4-morpholinophenyl)amino)pyrimidin-4-yl)oxy)methyl)cyclo-hexyl)acetamide]: the IC50 was less than 0.05 µM.

`CC(=O)N[C@H]1CC[C@H](COc2nc(Nc3ccc(N4C[C@@H](C)O[C@@H](C)C4)cc3)ncc2F)CC1` [Example 83]: the IC50 is less than 0.05 µM.

On to `CC(=O)N[C@H]1CC[C@H](COc2nc(Nc3cn(C(C)(C)C#N)nc3C)ncc2F)CC1` [Example 84, N-((1R,4R)-4-(((2-((1-(2-cyanopropan-2-yl)-3-methyl-1H-pyrazol-4-yl)amino)-5-fluoropyrimidin-4-yl)oxy)methyl)cyclo-hexyl)acetamide], for which the concentration for half-maximal inhibition (IC50) is less than 0.05 µM.

Consider `CC(=O)NC1CCCC(COc2nc(Nc3ccc(N4CCOCC4)cc3)ncc2F)CC1` (centres unmarked) [Example 85, N-(4-(((5-fluoro-2-((4-morpholinophenyl)amino)pyrimidin-4-yl)oxy)methyl)cyclo-heptyl)acetamide], for which the IC50 is less than 0.05 µM.

Regarding `CC(=O)N[C@H]1CC[C@H](COc2nc(Nc3cn(C(C)(C)C#N)nc3C)ncc2C)CC1` [Example 87, N-((1R,4R)-4-(((2-((1-(2-cyanopropan-2-yl)-3-methyl-1H-pyrazol-4-yl)amino)-5-methylpyrimidin-4-yl)oxy)methyl)cyclo-hexyl)acetamide], the half-maximal inhibitory concentration (IC50) was less than 0.05 µM.

Consider `CC(=O)N[C@H]1CC[C@H](COc2nc(Nc3ccc(N4CCOCC4)cc3)ncc2C2CC2)CC1` [Example 88, N-((1R,4R)-4-(((5-cyclopropyl-2-((4-morpholinophenyl)amino)pyrimidin-4-yl)oxy)methyl)cyclo-hexyl)acetamide], for which the IC50 lay within 0.05 to 0.2 µM.

For the molecule `CC(=O)N[C@H]1CC[C@@H](COc2ccnc(Nc3ccc(N4CCOCC4)cc3)n2)C1` [Example 89, N-((1S,3R)-3-(((2-((4-morpholinophenyl)amino)pyrimidin-4-yl)oxy)methyl)cyclo-pentyl)acetamide], the IC50 is greater than 0.4 µM.

`CC(=O)NC1CCC(C)(COc2ccnc(Nc3ccc(N4C[C@@H](C)O[C@@H](C)C4)cc3)n2)CC1` (stereo partly drawn) [Example 90, N-(4-(((2-((4-((2S,6R)-2,6-dimethylmorpholino)phenyl)amino)py-rimidin-4-yl)oxy)methyl)-4-methylcyclohexyl) acetamide]: the IC50 is greater than 0.4 µM.

Consider `CC(=O)NC1CCC(C)(COc2ccnc(Nc3ccc(N4CCOCC4)cc3)n2)CC1` (centres unmarked) [Example 91, N-(4-methyl-4-(((2-((4-morpholinophenyl)amino)pyrimidin-4-yl)oxy)methyl)cyclo-hexyl)acetamide], for which the IC50 was greater than 0.4 µM.

Take `CC(=O)N[C@H]1C[C@H](COc2nc(Nc3ccc(N4CCOCC4)cc3)ncc2F)C1` [Example 92, N-((1R,3R)-3-(((5-fluoro-2-((4-morpholinophenyl)amino)pyrimidin-4-yl)oxy)methyl)cyclo-butyl)acetamide]: the IC50 lay within 0.2 to 0.4 µM.

For the molecule `CC(=O)NC1CCCC(COc2nc(Nc3ccc(N4C[C@@H](C)O[C@@H](C)C4)cc3)ncc2F)CC1` (stereo partly drawn) [Example 93, N-(4-(((2-((4-((2S,6R)-2,6-dimethylmorpholino)phenyl)amino)-5-fluoropyrimidin-4-yl)oxy)methyl)cyclo-heptyl)acetamide], the IC50 was less than 0.05 µM.

Consider `CC(=O)N[C@H]1C[C@H](COc2ccnc(Nc3ccc(N4CCOCC4)cc3)n2)C1` [Example 94, N-((1R,3R)-3-(((2-((4-morpholinophenyl)amino)pyrimidin-4-yl)oxy)methyl)cyclo-butyl)acetamide], for which the 50% inhibitory concentration (IC50) was greater than 0.4 µM.

On to `CC(=O)N1CCC(COc2nc(Nc3ccc(N4CCOCC4)cc3)ncc2Cl)C(F)(F)C1` (centres unmarked) [Example 95, 1-(4-(((5-chloro-2-((4-morpholinophenyl)amino)pyrimidin-4-yl)oxy)methyl)-3,3-difluoropiperidin-1-yl)ethan-1-one], for which the IC50 was less than 0.05 µM.

Take `CC(=O)N1CCC(COc2nc(Nc3cn(C(C)(C)C#N)nc3C)ncc2Cl)C(F)(F)C1` (centres unmarked) [Example 96, 2-(4-((4-((1-acetyl-3,3-difluoropiperidin-4-yl)methoxy)-5-chloropyrimidin-2-yl)amino)-3-methyl-1H-pyrazol-1-yl)-2-methylpropanenitrile]: the IC50 is less than 0.05 µM.

Turning to `CC(=O)N1CC2(CC(COc3nc(Nc4ccc(N5C[C@@H](C)O[C@@H](C)C5)cc4)ncc3F)C2)C1` [Example 97], the concentration for half-maximal inhibition (IC50) is greater than 0.4 µM.

As to `O=C(N[C@H]1CC[C@H](COc2ccnc(Nc3ccc(N4CCOCC4)cc3)n2)CC1)C(F)(F)F` [Example 98, 2,2,2-trifluoro-N-((1R,4R)-4-(((2-((4-morpholino-phenyl)amino)pyrimidin-4-yl)oxy)methyl)cyclohexyl) acetamide], the 50% inhibitory concentration (IC50) lay in the range of 0.05 to 0.2 µM.
